Tests used:
Assay in all cases: Enzyme Inhibition Assay
[1] = target: Coagulation factor XI (Homo sapiens, UniProt P03951); conditions: pH 7.4; 30 °C
[2] = target: Prothrombin (Homo sapiens, UniProt P00734)
[3] = target: Coagulation factor X (Homo sapiens, UniProt P00742)
Sequence of Coagulation factor X (P00742 41-179 limits assumed): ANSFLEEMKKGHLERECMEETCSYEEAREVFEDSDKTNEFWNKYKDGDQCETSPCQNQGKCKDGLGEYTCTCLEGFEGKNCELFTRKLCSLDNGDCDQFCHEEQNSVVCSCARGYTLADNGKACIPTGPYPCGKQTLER
Sequence of Coagulation factor X (P00742 235-488 limits assumed): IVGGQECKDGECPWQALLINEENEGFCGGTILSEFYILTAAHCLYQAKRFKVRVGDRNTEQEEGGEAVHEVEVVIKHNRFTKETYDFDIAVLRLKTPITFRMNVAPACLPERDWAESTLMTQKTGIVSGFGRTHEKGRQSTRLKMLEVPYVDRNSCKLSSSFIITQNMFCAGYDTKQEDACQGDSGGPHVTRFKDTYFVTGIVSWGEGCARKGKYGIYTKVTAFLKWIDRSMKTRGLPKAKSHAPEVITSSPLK

Sequence of Coagulation factor XI (P03951 19-387 limits assumed): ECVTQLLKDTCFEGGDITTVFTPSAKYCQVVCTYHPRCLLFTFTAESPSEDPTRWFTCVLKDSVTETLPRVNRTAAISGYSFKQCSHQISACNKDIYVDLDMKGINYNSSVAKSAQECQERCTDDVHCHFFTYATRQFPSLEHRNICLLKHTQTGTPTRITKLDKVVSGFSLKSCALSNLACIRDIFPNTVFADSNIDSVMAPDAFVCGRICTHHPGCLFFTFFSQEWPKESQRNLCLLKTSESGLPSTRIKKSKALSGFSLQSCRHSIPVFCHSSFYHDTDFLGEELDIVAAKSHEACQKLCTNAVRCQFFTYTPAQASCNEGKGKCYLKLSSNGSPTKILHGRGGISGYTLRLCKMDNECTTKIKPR
Sequence of Coagulation factor XI (P03951 388-625 limits assumed): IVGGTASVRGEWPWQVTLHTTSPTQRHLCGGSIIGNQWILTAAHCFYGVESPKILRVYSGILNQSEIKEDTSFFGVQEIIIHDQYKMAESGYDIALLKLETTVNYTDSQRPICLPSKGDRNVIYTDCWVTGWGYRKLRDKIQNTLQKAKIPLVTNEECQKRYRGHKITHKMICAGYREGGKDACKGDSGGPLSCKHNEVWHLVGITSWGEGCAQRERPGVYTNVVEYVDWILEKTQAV

SMILES	IC50 [1]	IC50 [2]	IC50 [3]
CC(C)[C@H](NC(=O)[C@H](Cc1ccccc1)NS(=O)(=O)c1ccc(Cl)c(Cl)c1)C(=O)N[C@@H](CCCN=C(N)N)C(=O)c1nccs1 [(2S)-N-[(2S)-5-carbamimidamido-1-oxo-1-(1,3-thiazol-2-yl)pentan-2-yl]-2-[(2S)-2-[(3,4-dichlorobenzene)sulfonamido]-3-phenylpropanamido]-3-methylbutanamide]	2300 nM	–	–
CC(C)[C@H](NC(=O)[C@H](Cc1ccccc1)NC(=O)Nc1ccccc1)C(=O)N[C@@H](CCCN=C(N)N)C(=O)c1nccs1 [(2S)-N-[(2S)-5-carbamimidamido-1-oxo-1-(1,3-thiazol-2-yl)pentan-2-yl]-3-methyl-2-[(2S)-3-phenyl-2-[(phenylcarbamoyl)amino]propanamido]butanamide]	1920 nM	935 nM	> 20 µM
CC(C)[C@H](NC(=O)[C@H](Cc1ccccc1)NC(=O)c1ccco1)C(=O)N[C@@H](CCCN=C(N)N)C(=O)c1nccs1 [(2S)-N-[(2S)-5-carbamimidamido-1-oxo-1-(1,3-thiazol-2-yl)pentan-2-yl]-2-[(2S)-2-(furan-2-ylformamido)-3-phenylpropanamido]-3-methylbutanamide]	2200 nM	–	–
CC(C)[C@H](NC(=O)[C@H](Cc1ccccc1)NC(=O)Cc1cccs1)C(=O)N[C@@H](CCCN=C(N)N)C(=O)c1nccs1 [(2S)-N-[(2S)-5-carbamimidamido-1-oxo-1-(1,3-thiazol-2-yl)pentan-2-yl]-3-methyl-2-[(2S)-3-phenyl-2-[1-(thiophen-2-yl)acetamido]propanamido]butanamide]	2600 nM	–	–
CC(C)[C@H](NC(=O)[C@H](Cc1ccccc1)NC(=O)NCc1ccc(Cl)c(Cl)c1)C(=O)N[C@@H](CCCN=C(N)N)C(=O)c1nccs1 [(2S)-N-[(2S)-5-carbamimidamido-1-oxo-1-(1,3-thiazol-2-yl)pentan-2-yl]-2-[(2S)-2-({[(3,4-dichlorophenyl)methyl]carbamoyl}amino)-3-phenylpropanamido]-3-methylbutanamide]	93 nM	6700 nM	14.2 µM

The remaining compounds from weak to strong by IC50 [1], led by results:

IC50 [1]	IC50 [2]	IC50 [3]	SMILES
403 nM	2100 nM	15.4 µM	CCOC(=O)C(CC(C)C)NC(=O)N[C@@H](Cc1ccccc1)C(=O)N[C@H](C(=O)N[C@@H](CCCN=C(N)N)C(=O)c1nccs1)C(C)C (stereo partly drawn) [ethyl 2-({[(1S)-1-{[(1S)-1-{[(2S)-5-carbamimidamido-1-oxo-1-(1,3-thiazol-2-yl)pentan-2-yl]carbamoyl}-2-methylpropyl]carbamoyl}-2-phenylethyl]carbamoyl}amino)-4-methylpentanoate]
258 nM	2100 nM	14.3 µM	CCOC(=O)C(Cc1ccccc1)NC(=O)N[C@@H](Cc1ccccc1)C(=O)N[C@H](C(=O)N[C@@H](CCCN=C(N)N)C(=O)c1nccs1)C(C)C (stereo partly drawn) [ethyl 2-({[(1S)-1-{[(1S)-1-{[(2S)-5-carbamimidamido-1-oxo-1-(1,3-thiazol-2-yl)pentan-2-yl]carbamoyl}-2-methylpropyl]carbamoyl}-2-phenylethyl]carbamoyl}amino)-3-phenylpropanoate]
160 nM	4300 nM	–	CC(C)[C@H](NC(=O)[C@H](Cc1ccccc1)NC(=O)NCc1ccc(F)cc1)C(=O)N[C@@H](CCCN=C(N)N)C(=O)c1nccs1 [(2S)-N-[(2S)-5-carbamimidamido-1-oxo-1-(1,3-thiazol-2-yl)pentan-2-yl]-2-[(2S)-2-({[(4-fluorophenyl)methyl]carbamoyl}amino)-3-phenylpropanamido]-3-methylbutanamide]
